How the values were obtained:
[1] = Shelf life and reactivity towards nucleophiles; format: physicochemical
[2] = Cycloaddition with benzyl azide, second-order rate constant by 1H NMR; format: physicochemical; conditions: for second-order rate constant: NMR
Experimental: However, upon exposure to azides a fast reaction took place and gave the corresponding triazoles in high yield. For example, triazoles 10-13 were obtained in quantitative yields as mixtures of regioisomers by reaction of the corresponding azido-containing sugar and amino acid derivatives with 3 in methanol for 30 minutes (Scheme 2; FIG. 3 and FIG. 4). The progress of the reaction of 3 with benzyl azide in methanol and in a mixture of water/acetonitrile (1:4 v/v) was monitored by NMR spectroscopy by integration of the benzylic proton signals, and second-order rate constants of 0.17 and 2.3 m^−1s^−1, respectively, were determined.
A number of analogs (63-68) of 4-dibenzocyclooctynol (61) were prepared and the influence of these modifications on the reaction rate of the cycloaddition with benzyl azide was determined by integration of the benzylic proton signals in ^1H NMR spectrum.
General Method for Calculating Second Order Rate Constants by NMR.
Substrates were dissolved separately in the appropriate solvent and mixed 1:1 at 6 mM concentrations. Percent conversion was monitored both by disappearance of starting material and appearance of the two regioisomeric products as determined by integration at multiple chemical shifts. Second order rate constants for the reaction were determined by plotting the 1/[substrates] versus time and analysis by linear regression. Second order rate constants correspond to one half of the determined slope.

[3] = tested on: Jurkat cells bearing azides (Ac4ManNAz-treated); assay: Cell surface azide labeling and detection by fluorescence intensity (avidin-FITC); format: cell-based, Human
Experimental: FIG. 6 illustrates embodiments of cell-surface labeling with compounds 2 and 9. Jurkat cells grown for three days in the absence or presence of Ac4ManNAz (25 micromolar) were incubated a) with compounds 2 and 9 (30 micromolar) for 0-180 minutes or b) with compounds 2 and 9 (0-100 micromolar) for 1 hour at room temperature. Next, the cells were incubated with avidin-FITC for 15 minutes at 4° C., after which cell lysates were assessed for fluorescence intensity. Samples are indicated as follows: blank cells incubated with 2 (∘) or 9 (□), and Ac,ManNAz cells incubated with 2 (●) or 9 (▪).
Next, Jurkat cells were cultured in the presence of 25 micromolar N-azidoacetylmannosamine (Ac4ManNAz) for three days to metabolically introduce N-azidoacetylsialic acid (SiaNAz) moieties into glycoproteins (Luchansky and Bertozzi, Chem-BioChem 2004, 5:1706-1709). As a negative control, Jurkat cells were employed that were grown in the absence of Ac4ManNAz. The cells were exposed to a 30 micromolar solution of compound 9 for various time periods, and after washing, the cells were stained with avidin-fluorescein isothiocyanate (FITC) for 15 minutes at 4° C. The efficiency of the two-step cell-surface labeling was determined by measuring the fluorescence intensity of the cell lysates. […]

[4] = Solubility seen in the labeling experiment; format: physicochemical; conditions: no increase in labeling above 100 micromolar
Experimental: The concentration dependence of the cell-surface labeling was studied by incubation of cells with various concentrations of 2 and 9 followed by staining with avidin-FTIC (FIG. 6b).

[5] = tested on: Jurkat cells
[6] = tested on: CHO cells bearing azides (Ac4ManNAz-treated); assay: Cell labeling and detection by fluorescence (confocal) microscopy; format: cell-based, Chinese hamster
Experimental: FIG. 8 illustrates fluorescence images for embodiments of cells labeled with compound 9 and avidin-Alexa Fluor 488. CHO cells grown for 3 days in the absence (d-f) or presence (a-c) of Ac4ManNAz (100 micromolar) were incubated with compound 9 (30 micromolar) for 1 hour at 4° C. (a, d) or room temperature (b, c, e, f). Next, cells were incubated with avidin-Alexa Fluor 488 for 15 minutes at 4° C. and, after washing, fixing, and staining for the nucleus with far-red-fluorescent dye TO-PRO, imaged (a, b, d, e) or after washing incubated for 1 hour at 37° C. before fixing, nucleus staining, and imaging (c, f).
Next, attention was focused on visualizing azido-containing glycoconjugates of living cells by confocal microscopy. Thus, adherent Chinese hamster ovary (CHO) cells were cultured in the presence of Ac4ManNAz (100 micromolar) for three days. The resulting cell-surface azido moieties were treated with 9 (30 micromolar) for 1 hour and then with avidin-AlexaFluor488 for 15 minutes at 4° C.
Cell-surface glycoconjugates are constantly recycled by endocytosis, and to monitor this process, metabolically labeled cells were reacted with 9 and avidin-AlexaFluor488 according to the standard protocol and incubated at 37° C. for 1 hour before examination by confocal microscopy.
Chinese hamster ovary (CHO) cells (Clone K1; ATCC) were cultured in Kaighn's modification of Ham's F-12 medium (F-12K) with L-glutamine (2 mM), adjusted to contain sodium bicarbonate (1.5 g L^−1) and supplemented with penicillin (100 u mL^−1)/streptomycin (100 micrograms mL^−1 and FBS (10%). Cells were maintained in a humid 5% CO2 atmosphere at 37° C. CHO cells were grown in the presence of Ac4ManNaz (100 micromolar final concentration) for 3 days to metabolically incorporate SiaNAz into their cell surface glycoproteins. CHO cells bearing azides and untreated control cells were then transferred to a glass coverslip and cultured for 36 hours in their original medium. […] The step size, based on the calculated optimum for each objective, was between 0.25 and 0.5 micrometers. […]

[7] = cycloaddition with benzyl azide

OC1Cc2ccccc2C#Cc2ccccc21 (stereo not drawn) [Compound 3, 3-Hydroxy-7,8-didehydro-1,2:5,6-dibenzocyclooctene]
shelf life [1]: excellent, long shelf life
reactivity with nucleophiles ([1]; thiols and amines): did not react with nucleophiles such as thiols and amines
rate constant compared with cyclooctyne 1 ([2]; acetonitrile/water): three orders of magnitude greater
second-order rate constant ([2]; reaction with benzyl azide in methanol): 0.17 m^−1s^−1
second-order rate constant ([2]; reaction with benzyl azide in water/acetonitrile (1:4 v/v)): 2.3 m^−1s^−1

O=C(CCCCC1SCC2NC(=O)NC21)NCCOCCOCCNC(=O)OC1Cc2ccccc2C#Cc2ccccc21 (stereo not drawn) [Compound 9, Carbonic acid 7,8-didehydro-1,2:5,6-dibenzocyclooctene-3-yl ester, 8′-biotinylamine-3′,6′-dioxaoctane 1′-amide]
incubation time after which labeling was almost complete ([3]; 30 micromolar, room temperature, then avidin-FITC): 60 min
concentration at which reliable fluorescent labeling was achieved ([3]; 1 hour at room temperature): 3 µM
solubility [4]: limited solubility
effect on cell viability ([5]; two-step labeling, morphology and exclusion of trypan blue): no effect on cell viability
labeling efficiency at ambient temperature versus 4° C. ([6]; 30 micromolar, 1 hour): equally efficient when performed at either ambient temperature or 4 °C
location of staining ([6]; 30 micromolar, 1 hour, then avidin-AlexaFluor488): staining was observed only at the surface
internalization of labeled glycoproteins ([6]; after labeling, incubated at 37° C. for 1 hour): a significant quantity of labeled glycoproteins had been internalized into vesicular compartments

C1#Cc2ccccc2CCc2ccccc21 [Compound 62, reference compound]
times slower reaction than 4-dibenzocyclooctynol (61) [2, 7]: approximately 70 times

O=C1Cc2ccccc2C#Cc2ccccc21 [Compound 67, 6H-11,12-didehydro-dibenzo[a,e]cyclooctatrien-5-one]
reaction rate compared with 61 (in words) [2, 7]: slightly higher reaction rate than 1

[Cl][Cu] [Cu^ICl, reference compound]
cell death [5]: approximately 98%

From US9932297B2, “Alkynes and methods of reacting alkynes with 1,3-dipole-functional compounds” (UNIVERSITY OF GEORGIA RESEARCH FOUNDATION, INC., priority 2007, dated 2018)
